Test results taken from ChEMBL document CHEMBL1201862, “PubChem BioAssay data set” (2004).
The source made the active and inactive calls.

Experiments:
[1] = A cytotoxicity screen of small molecule inhibitors of the PhoP region in Salmonella typhi identified in the primary screen. [Related pubchem assays: 1850, 1864, 1985 ]; format: functional
[2] = molecular target: T1, Caspase-6 (Homo sapiens, UniProt P55212); assay: human caspase-6 inhibitors, dose response, biochemical, VEID-R110 fluorescence, cherry-pick (AID 720632)
T1 sequence (P55212 whole entry): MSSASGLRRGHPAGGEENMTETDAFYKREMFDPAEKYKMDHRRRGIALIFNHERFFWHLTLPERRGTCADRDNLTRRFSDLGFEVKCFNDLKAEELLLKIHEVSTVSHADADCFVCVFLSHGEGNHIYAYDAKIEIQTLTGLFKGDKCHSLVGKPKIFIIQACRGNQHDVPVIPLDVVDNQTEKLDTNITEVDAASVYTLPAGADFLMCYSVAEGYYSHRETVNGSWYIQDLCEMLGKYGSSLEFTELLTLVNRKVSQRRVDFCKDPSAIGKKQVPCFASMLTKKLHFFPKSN

[3] = P. falciparum 3D7-ScDHODH growth inhibitors, dose response, SYBR Green, dry powder samples (AID 1159570); format: functional, cell-based;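 note: parasite growth measured after 72 hours of compound exposure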
[4] = P. falciparum ATP4 D1247Y mutant growth inhibitors, dose response, NITD609-resistant line, SYBR Green, dry powder (AID 1159571); format: functional, cell-based;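 note: parasites synchronized at ring stage by sorbitol before testing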
[5] = HepG2 cell cytotoxicity, dose response, cytotoxicity control, plate reader, dry powder samples (AID 1159569); format: functional, cell-based;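 note: inhibitor potency with signal falling toward the positive control level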
[6] = P. falciparum Dd2 growth inhibitors, dose response, SYBR Green, dry powder samples (AID 1159566); format: functional, cell-based;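 note: potency for growth inhibition with lower SYBR green DNA signal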
[7] = P. falciparum Dd2 growth inhibitors, dose response, SYBR Green, cherry-picked samples (AID 1159567); format: functional, cell-based
[8] = tested on: HEK293; assay: cells; format: functional, cell-based; details: Homo sapiens
[9] = tested on: HEK293; assay: NOD2 signaling inhibitors in MDP-stimulated cells, cell-based, uHTS, luminescence (AID 2001); format: functional; details: Homo sapiens
[10] = molecular target: T2, Mucolipin-3 (Homo sapiens, UniProt Q8TDD5); assay: Dose response cell-based high-throughput screening assay for agonists of the transient receptor potential channel ML3 (TRPML3). [Related pubchem assays: 1526, 1424, 1448 ]; format: functional
T2 sequence (Q8TDD5 whole entry): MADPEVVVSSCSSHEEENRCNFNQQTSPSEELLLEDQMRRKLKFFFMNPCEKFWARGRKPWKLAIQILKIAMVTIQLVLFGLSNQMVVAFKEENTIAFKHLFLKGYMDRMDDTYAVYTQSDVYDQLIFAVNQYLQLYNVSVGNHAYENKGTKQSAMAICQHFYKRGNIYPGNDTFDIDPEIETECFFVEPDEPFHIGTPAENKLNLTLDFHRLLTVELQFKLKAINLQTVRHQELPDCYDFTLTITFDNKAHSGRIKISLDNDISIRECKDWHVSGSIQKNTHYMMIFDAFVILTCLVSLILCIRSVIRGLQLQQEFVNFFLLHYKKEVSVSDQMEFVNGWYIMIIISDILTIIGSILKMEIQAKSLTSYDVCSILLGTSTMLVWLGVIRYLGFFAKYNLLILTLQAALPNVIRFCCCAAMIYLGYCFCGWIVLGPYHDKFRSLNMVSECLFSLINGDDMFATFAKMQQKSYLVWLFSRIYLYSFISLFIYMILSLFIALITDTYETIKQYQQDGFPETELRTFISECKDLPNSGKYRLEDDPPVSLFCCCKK

[11] = tested on: HEK293; assay: NOD1 signaling inhibitors, primary screen, cell-based, luminescence, uHTS (AID 1578); format: functional; details: Homo sapiens
[12] = molecular target: Ion channel NompC (Danio rerio, UniProt Q7T1G6); assay: Fluorescence counterscreen assay for TRPML3 agonists: dose response cell-based high-throughput screening assay to identify agonists of the transient receptor potential channel N1 (TRPN1). [Related pubchem assays: 1526, 1424, 1448 ]; format: functional
Ion channel NompC, sequence (Q7T1G6 whole entry): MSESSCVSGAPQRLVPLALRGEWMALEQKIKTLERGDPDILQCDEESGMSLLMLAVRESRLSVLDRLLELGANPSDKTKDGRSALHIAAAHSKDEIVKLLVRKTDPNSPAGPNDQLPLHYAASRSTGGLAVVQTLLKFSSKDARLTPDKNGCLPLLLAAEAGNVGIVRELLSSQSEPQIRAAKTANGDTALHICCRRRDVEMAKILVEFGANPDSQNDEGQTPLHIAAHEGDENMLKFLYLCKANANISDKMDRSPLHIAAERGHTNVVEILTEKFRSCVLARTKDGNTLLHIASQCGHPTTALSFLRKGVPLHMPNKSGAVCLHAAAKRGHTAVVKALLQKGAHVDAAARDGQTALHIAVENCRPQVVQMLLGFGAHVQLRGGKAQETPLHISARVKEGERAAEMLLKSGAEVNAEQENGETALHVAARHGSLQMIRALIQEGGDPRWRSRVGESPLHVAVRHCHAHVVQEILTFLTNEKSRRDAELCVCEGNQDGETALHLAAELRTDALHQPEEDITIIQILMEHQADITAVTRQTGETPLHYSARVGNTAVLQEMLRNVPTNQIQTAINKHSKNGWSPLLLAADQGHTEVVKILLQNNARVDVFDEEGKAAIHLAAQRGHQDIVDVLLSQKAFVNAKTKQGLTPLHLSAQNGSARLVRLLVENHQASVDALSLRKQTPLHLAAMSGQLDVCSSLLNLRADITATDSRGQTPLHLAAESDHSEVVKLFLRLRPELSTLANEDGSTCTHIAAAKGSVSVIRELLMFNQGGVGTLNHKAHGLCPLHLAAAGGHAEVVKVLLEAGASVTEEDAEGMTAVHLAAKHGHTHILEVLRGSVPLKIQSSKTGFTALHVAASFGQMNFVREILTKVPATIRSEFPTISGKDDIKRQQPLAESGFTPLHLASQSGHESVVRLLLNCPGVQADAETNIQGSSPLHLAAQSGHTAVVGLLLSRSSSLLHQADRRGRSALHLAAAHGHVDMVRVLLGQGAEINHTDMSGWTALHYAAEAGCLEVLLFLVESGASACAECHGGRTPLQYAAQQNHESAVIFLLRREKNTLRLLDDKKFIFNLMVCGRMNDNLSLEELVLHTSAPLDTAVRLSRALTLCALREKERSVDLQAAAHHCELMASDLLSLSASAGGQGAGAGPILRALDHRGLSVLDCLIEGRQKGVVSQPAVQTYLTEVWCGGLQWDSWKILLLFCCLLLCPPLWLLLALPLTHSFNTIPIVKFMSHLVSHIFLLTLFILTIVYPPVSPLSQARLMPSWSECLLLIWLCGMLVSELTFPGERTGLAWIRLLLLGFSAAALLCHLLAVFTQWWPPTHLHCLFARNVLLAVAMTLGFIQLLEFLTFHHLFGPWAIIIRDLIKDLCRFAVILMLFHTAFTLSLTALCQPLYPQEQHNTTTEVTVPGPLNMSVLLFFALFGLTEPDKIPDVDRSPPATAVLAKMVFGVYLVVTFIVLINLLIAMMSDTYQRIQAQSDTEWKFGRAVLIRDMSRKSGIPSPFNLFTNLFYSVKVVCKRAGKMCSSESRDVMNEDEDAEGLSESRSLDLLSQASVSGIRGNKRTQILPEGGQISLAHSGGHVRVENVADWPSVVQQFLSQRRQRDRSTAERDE

[13] = tested on: HEK293; assay: cells; format: functional, cell-based; details: Homo sapiens; remark: listed apart in the source
[14] = molecular target: T3, Carboxy-terminal domain RNA polymerase II polypeptide A small phosphatase 1 (Homo sapiens, UniProt Q9GZU7); assay: inhibitors of CTDSP1, concentration-response testing, biochemical assay, absorbance-based, actives from ultra-high-throughput screening (AID 540297); format: functional
T3 sequence (Q9GZU7 whole entry): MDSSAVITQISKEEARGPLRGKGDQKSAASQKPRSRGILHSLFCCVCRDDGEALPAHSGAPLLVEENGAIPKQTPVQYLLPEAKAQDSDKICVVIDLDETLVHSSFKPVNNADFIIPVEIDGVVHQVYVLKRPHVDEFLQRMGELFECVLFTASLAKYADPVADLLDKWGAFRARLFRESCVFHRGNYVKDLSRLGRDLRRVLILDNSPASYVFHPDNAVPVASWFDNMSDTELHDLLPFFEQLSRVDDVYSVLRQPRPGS

[15] = molecular target: Kallikrein-7 (Homo sapiens, UniProt P49862); assay: Fluorescence Intensity-based biochemical primary high throughput dose response assay to identify activators of kallikrein-7 (K7) zymogen.
Kallikrein-7, sequence (P49862 whole entry): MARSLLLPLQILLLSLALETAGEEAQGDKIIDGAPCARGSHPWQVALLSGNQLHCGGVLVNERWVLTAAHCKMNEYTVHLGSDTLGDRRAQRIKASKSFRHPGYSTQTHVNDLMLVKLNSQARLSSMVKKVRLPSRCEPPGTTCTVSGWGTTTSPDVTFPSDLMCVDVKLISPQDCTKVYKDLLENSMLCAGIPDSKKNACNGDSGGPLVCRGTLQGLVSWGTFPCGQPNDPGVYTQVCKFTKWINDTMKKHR

[16] = molecular target: Beta-galactosidase (Escherichia coli, UniProt Q8VNN2); assay: beta-galactosidase enzyme inhibitors and activators, dose response, artefact control for CCR6 antagonist project, biochemical, E. coli enzyme, set 3 (AID 504712); format: functional
Beta-galactosidase, sequence (Q8VNN2 whole entry): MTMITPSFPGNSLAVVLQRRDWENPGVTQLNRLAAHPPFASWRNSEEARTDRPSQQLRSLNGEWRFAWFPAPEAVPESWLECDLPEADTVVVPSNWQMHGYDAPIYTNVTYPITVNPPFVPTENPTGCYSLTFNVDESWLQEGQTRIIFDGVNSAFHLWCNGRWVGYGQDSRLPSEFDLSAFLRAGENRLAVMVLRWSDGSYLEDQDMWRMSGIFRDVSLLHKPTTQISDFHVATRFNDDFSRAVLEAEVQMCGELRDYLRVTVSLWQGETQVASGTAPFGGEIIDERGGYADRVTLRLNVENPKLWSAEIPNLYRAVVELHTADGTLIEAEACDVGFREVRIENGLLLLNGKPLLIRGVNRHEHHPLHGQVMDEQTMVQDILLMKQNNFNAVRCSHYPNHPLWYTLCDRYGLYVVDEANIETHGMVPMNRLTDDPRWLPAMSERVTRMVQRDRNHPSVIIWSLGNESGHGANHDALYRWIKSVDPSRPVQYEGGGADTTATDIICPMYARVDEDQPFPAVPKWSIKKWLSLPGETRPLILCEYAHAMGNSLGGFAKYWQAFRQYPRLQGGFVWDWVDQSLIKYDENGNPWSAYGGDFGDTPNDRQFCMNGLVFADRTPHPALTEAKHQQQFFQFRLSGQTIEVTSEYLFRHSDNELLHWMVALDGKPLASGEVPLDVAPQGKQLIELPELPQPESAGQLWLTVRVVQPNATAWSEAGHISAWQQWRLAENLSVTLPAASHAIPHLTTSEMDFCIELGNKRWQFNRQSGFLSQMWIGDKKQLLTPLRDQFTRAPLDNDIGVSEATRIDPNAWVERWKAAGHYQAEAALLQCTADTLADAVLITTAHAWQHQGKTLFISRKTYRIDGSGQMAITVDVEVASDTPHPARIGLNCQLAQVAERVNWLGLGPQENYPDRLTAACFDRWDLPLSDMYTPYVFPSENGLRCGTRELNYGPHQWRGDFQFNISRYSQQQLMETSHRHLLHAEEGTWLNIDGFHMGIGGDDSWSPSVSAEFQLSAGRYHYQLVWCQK

[17] = molecular target: T4, Probable nicotinate-nucleotide adenylyltransferase (Staphylococcus aureus (strain N315), UniProt P65502); format: functional, Staphylococcus aureus subsp. aureus N315; details: read-out: IC50_Mean;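 for IC50 Mean: confirmatory dose-response retesting of NadD inhibitor hits first found in an ultra-high-throughput screen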
T4 sequence (P65502 whole entry): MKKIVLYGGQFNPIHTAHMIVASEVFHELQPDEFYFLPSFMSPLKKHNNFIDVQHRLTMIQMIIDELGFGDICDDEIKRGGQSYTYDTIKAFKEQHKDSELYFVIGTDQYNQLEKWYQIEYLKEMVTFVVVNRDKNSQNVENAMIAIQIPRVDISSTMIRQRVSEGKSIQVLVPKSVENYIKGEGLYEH

[18] = molecular target: T4, Probable nicotinate-nucleotide adenylyltransferase; format: functional, Staphylococcus aureus subsp. aureus N315

CN(C)/C=N/c1ncc(C(=O)c2ccc(Cl)cc2)s1
EC50 [1]: > 50 µM (active)

Cc1cc(C)cc(NC(=O)Cc2ccc(S(=O)(=O)N3CCCC3)s2)c1
AC50 [2]: 24.2 µM (active)

COc1cccc(NC(=O)N(C)C[C@@H]2Oc3cc(C#Cc4ccc(F)cc4)ccc3S(=O)(=O)N([C@@H](C)CO)C[C@@H]2C)c1
AC50 [3]: 1.04 µM (active)
AC50 [4]: 1.22 µM (active)
AC50 [5]: > 100 µM (inactive)
AC50 [6]: 1.18 µM (active)
AC50 [7]: 2 µM (active)

CCOc1ccc(NC(=O)c2ccccc2NS(=O)(=O)c2ccc(F)cc2)c([N+](=O)[O-])c1
IC50 [8]: 19 µM (active)
IC50 [9]: 11.8 µM (inactive)
EC50 [10]: 5.29 µM (active)
EC50 [11]: 4.21 µM (active)
EC50 [12]: > 29.9 µM (not active)
IC50 [13]: > 20 µM (inactive)

Nc1cc([N+](=O)[O-])ccc1N1C(=O)CCCC1=O
AC50 [2]: 18.3 µM (active)
IC50 [14]: 10.8 µM (active)

COc1ccc(C2=NN3C(C2)c2ccccc2OC3c2cccs2)cc1 (stereo not given)
EC50 [1]: > 50 µM (active)

Cc1cccn2c(=O)c3cc(C(=O)NC4CCS(=O)(=O)C4)sc3nc12 (stereo not given)
EC50 [15]: 25.1 µM (inactive)

Cc1c([N+](=O)[O-])cc(N2C(=O)C=CC2=O)cc1[N+](=O)[O-]
IC50 [16]: > 66.6 µM (inactive)
IC50 [17]: 6.33 µM (active)
IC50 [18]: 3.77 µM (active)

C[C@H](CO)N1C[C@H](C)[C@@H](CN(C)Cc2cccc(C(=O)Nc3ccccc3N)c2)OCc2ccccc2-c2c(n(C)c3ccccc23)C1=O
AC50 [3]: 0.944 µM (active)
AC50 [4]: 0.949 µM (active)
AC50 [5]: 72.9 µM (active)
AC50 [6]: 1.12 µM (active)
AC50 [7]: 1.21 µM (active)

OC[C@@H]1[C@H](c2ccc(C3=CCCC3)cc2)[C@@H](CNC2CCCC2)N1CC1CC1
AC50 [3]: 1.2 µM (active)
AC50 [4]: 0.78 µM (active)
AC50 [5]: 21.1 µM (active)
AC50 [6]: 0.843 µM (active)
AC50 [7]: 1.52 µM (active)
